Laboratory results: ChEMBL document CHEMBL5625238, “Lead generation from N-[benzyl(4-phenylbutyl)carbamoyl]amino acid as a novel LPA1 antagonist for the treatment of systemic sclerosis” (Eur J Med Chem, 2023)
Blank lines part the entries; values can stand above or below the molecule they belong to.

Columns and labels:
[1] = Plasma concentration in LPA-induced C57BL/6J mouse at 30 mg/kg, po administered via gavage and measured after 4 hrs by LC-MS/MS analysis; format: ADME, organism-based
Mus musculus [2] = experiment: Anti-hypertrophic activity in po dosed C57BL/6 mouse model of bleomycin-induced skin fibrosis assessed as reduction in skin thickness administered twice daily via gavage for 28 days measured post last dose by caliper method; format: functional, organism-based; details: dose 10-100 mg/kg, time 28.0 day
[3] = Plasma concentration in LPA-induced C57BL/6J mouse at 100 mg/kg, po administered via gavage and measured after 4 hrs by LC-MS/MS analysis; format: ADME, organism-based
[4] = Plasma concentration in LPA-induced C57BL/6J mouse at 100 mg/kg, po administered via gavage and measured after 8 hrs by LC-MS/MS analysis; format: ADME, organism-based
[5] = target: Lysophosphatidic acid receptor 1 (Mus musculus) (UniProt P61793); experiment: In vivo antagonist activity at LPA1 receptor in C57BL/6J mouse assessed as inhibition of LPA-induced histamine release from mast cells at 100 mg/kg, po administered via gavage and measured after 4 hrs by enzyme immunoassay relative to control; format: functional, organism-based
[6] = Plasma concentration in LPA-induced C57BL/6J mouse at 30 mg/kg, po administered via gavage and measured after 8 hrs by LC-MS/MS analysis; format: ADME, organism-based
Mus musculus [7] = species: Mus musculus; experiment: animal or person; details: C57BL/6, po, 672 h, read-out: INH
Description: Anti-fibrotic activity in C57BL/6 mouse model of bleomycin-induced skin fibrosis assessed as inhibition of collagen production by measuring reduction in hydroxyproline content at 10 mg/kg, po administered twice daily via gavage for 28 days measured post last dose relative to control

Mus musculus [8] = species: Mus musculus; experiment: animal or person; details: C57BL/6, po, 672 h, read-out: INH; remark: listed apart in the source
Description: Anti-fibrotic activity in C57BL/6 mouse model of bleomycin-induced skin fibrosis assessed as inhibition of collagen production by measuring reduction in hydroxyproline content at 100 mg/kg, po administered twice daily via gavage for 28 days measured post last dose relative to control

[9] = target: Lysophosphatidic acid receptor 1 (Mus musculus) (UniProt P61793); experiment: In vivo antagonist activity at LPA1 receptor in C57BL/6J mouse assessed as inhibition of LPA-induced histamine release from mast cells at 100 mg/kg, po administered via gavage and measured after 8 hrs by enzyme immunoassay relative to control; format: functional, organism-based
[10] = Plasma concentration in LPA-induced C57BL/6J mouse at 100 mg/kg, po administered via gavage and measured after 1 hr by LC-MS/MS analysis; format: ADME, organism-based
[11] = target: Lysophosphatidic acid receptor 1 (Mus musculus) (UniProt P61793); experiment: In vivo antagonist activity at LPA1 receptor in C57BL/6J mouse assessed as inhibition of LPA-induced histamine release from mast cells at 10 mg/kg, po administered via gavage and measured after 1 hr by enzyme immunoassay relative to control; format: functional, organism-based
[12] = target: Lysophosphatidic acid receptor 1 (Mus musculus) (UniProt P61793); experiment: In vivo antagonist activity at LPA1 receptor in C57BL/6J mouse assessed as inhibition of LPA-induced histamine release from mast cells at 10 mg/kg, po administered via gavage and measured after 4 hrs by enzyme immunoassay relative to control; format: functional, organism-based
[13] = target: Lysophosphatidic acid receptor 1 (Mus musculus) (UniProt P61793); experiment: In vivo antagonist activity at LPA1 receptor in C57BL/6J mouse assessed as inhibition of LPA-induced histamine release from mast cells at 30 mg/kg, po administered via gavage and measured after 8 hrs by enzyme immunoassay relative to control; format: functional, organism-based
[14] = Plasma concentration in LPA-induced C57BL/6J mouse at 10 mg/kg, po administered via gavage and measured after 4 hrs by LC-MS/MS analysis; format: ADME, organism-based
[15] = Plasma concentration in LPA-induced C57BL/6J mouse at 10 mg/kg, po administered via gavage and measured after 8 hrs by LC-MS/MS analysis; format: ADME, organism-based
[16] = Plasma concentration in LPA-induced C57BL/6J mouse at 10 mg/kg, po administered via gavage and measured after 1 hr by LC-MS/MS analysis; format: ADME, organism-based
[17] = target: Lysophosphatidic acid receptor 1 (Mus musculus) (UniProt P61793); experiment: In vivo antagonist activity at LPA1 receptor in C57BL/6J mouse assessed as inhibition of LPA-induced histamine release from mast cells at 30 mg/kg, po administered via gavage and measured after 4 hrs by enzyme immunoassay relative to control; format: functional, organism-based
[18] = Plasma concentration in LPA-induced C57BL/6J mouse at 30 mg/kg, po administered via gavage and measured after 1 hr by LC-MS/MS analysis; format: ADME, organism-based
Mus musculus [19] = species: Mus musculus; experiment: animal or person; details: C57BL/6, po, 672 h, read-out: INH; remark: listed apart in the source
Description: Anti-fibrotic activity in C57BL/6 mouse model of bleomycin-induced skin fibrosis assessed as inhibition of collagen production by measuring reduction in hydroxyproline content at 30 mg/kg, po administered twice daily via gavage for 28 days measured post last dose relative to control

[20] = target: Lysophosphatidic acid receptor 1 (Mus musculus) (UniProt P61793); experiment: In vivo antagonist activity at LPA1 receptor in C57BL/6J mouse assessed as inhibition of LPA-induced histamine release from mast cells at 30 mg/kg, po administered via gavage and measured after 1 hr by enzyme immunoassay relative to control; format: functional, organism-based
Mus musculus [21] = experiment: Anti-fibrotic activity in po dosed C57BL/6 mouse model of bleomycin-induced skin fibrosis assessed as inhibition of collagen production by measuring reduction in hydroxyproline content administered twice daily via gavage for 28 days measured post last dose; format: functional, organism-based; details: dose 10-100 mg/kg, time 28.0 day
[22] = target: Lysophosphatidic acid receptor 1 (Mus musculus) (UniProt P61793); experiment: In vivo antagonist activity at LPA1 receptor in C57BL/6J mouse assessed as inhibition of LPA-induced histamine release from mast cells at 100 mg/kg, po administered via gavage and measured after 1 hr by enzyme immunoassay relative to control; format: functional, organism-based
[23] = target: Lysophosphatidic acid receptor 1 (Mus musculus) (UniProt P61793); experiment: In vivo antagonist activity at LPA1 receptor in C57BL/6J mouse assessed as inhibition of LPA-induced histamine release from mast cells at 10 mg/kg, po administered via gavage and measured after 8 hrs by enzyme immunoassay relative to control; format: functional, organism-based
[24] = target: Lysophosphatidic acid receptor 1 (Homo sapiens, UniProt Q92633); experiment: Antagonist activity at human LPA1 receptor stably expressed in rat RH7777 cells assessed as reduction in LPA-induced intracellular Ca2+ concentration preincubated for 30 mins followed by LPA addition measured by Fluo-4 probe based fluorescence assay
Mus musculus [25] = species: Mus musculus; experiment: animal or person; details: C57BL/6, po, 672 h, read-out: INH; remark: listed apart in the source
Description: Anti-fibrotic activity in C57BL/6 mouse model of bleomycin-induced skin fibrosis assessed as inhibition of collagen production by measuring reduction in hydroxyproline content at 2 mg/kg, po administered once daily via gavage for 28 days measured post last dose relative to control

Lysophosphatidic acid receptor 1, sequence (Q92633 whole entry): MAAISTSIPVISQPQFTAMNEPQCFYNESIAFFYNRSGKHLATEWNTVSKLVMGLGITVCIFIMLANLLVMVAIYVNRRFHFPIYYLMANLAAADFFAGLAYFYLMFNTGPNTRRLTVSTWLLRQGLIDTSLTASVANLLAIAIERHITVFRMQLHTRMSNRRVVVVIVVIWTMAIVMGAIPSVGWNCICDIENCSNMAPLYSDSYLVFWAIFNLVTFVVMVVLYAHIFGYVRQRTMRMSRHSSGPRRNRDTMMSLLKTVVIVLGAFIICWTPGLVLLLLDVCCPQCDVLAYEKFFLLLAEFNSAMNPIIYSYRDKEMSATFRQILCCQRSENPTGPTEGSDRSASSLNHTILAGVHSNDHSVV
Lysophosphatidic acid receptor 1 (Mus musculus), sequence (P61793 whole entry): as the sequence (Q92633 whole entry) above, with I4A, I8S, P22Q, H40Y, I61V, E193D, N194H, I269V, S331N, T335N counted along it

Compound: COc1cc(CN(CCCCc2ccccc2)C(=O)N[C@H](CC(C)C)C(=O)O)cc(OC)c1C
- IC50 [24]: 3660 nM

Compound: COc1cc(CN(CCCCc2ccccc2)C(=O)NC2(C(=O)O)CCCC2)cc(OC)c1C
- IC50 [24]: 1790 nM

Compound: COc1cc([C@H](C)N(CCCCc2ccccc2)C(=O)NC2(C(=O)O)CC(F)(F)C2)cc(OC)c1C
- IC50 [24]: 470 nM

Compound: C[C@]12C=CC(=O)C=C1CC[C@@H]1[C@@H]2C(=O)C[C@@]2(C)[C@H]1CC[C@]2(O)C(=O)CO [PREDNISONE]
- inhibition in vivo at 2 mg/kg (Mus musculus [25]): 63%

Further lines, with some results ahead:

- concentration at 4 h [1]: 805 ng/mL
- concentration at 4 h [3]: 7160 ng/mL
- concentration at 8 h [4]: 2460 ng/mL
- inhibition [5]: 94%
- concentration at 8 h [6]: 596 ng/mL
- inhibition [9]: 77%
- concentration at 1 h [10]: 12100 ng/mL
- inhibition [11]: 58%
- inhibition [12]: 36%
- inhibition [13]: 44%
- concentration at 4 h [14]: 252 ng/mL
- concentration at 8 h [15]: 175 ng/mL
- concentration at 1 h [16]: 892 ng/mL
- inhibition [17]: 66%
- concentration at 1 h [18]: 4240 ng/mL
- inhibition [20]: 94%
- inhibition [22]: 95%
- inhibition [23]: 2%
Compound: COc1cc([C@@H](C)N(CCCCc2ccccc2)C(=O)NC2(C(=O)O)CC(F)(F)C2)cc(OC)c1C
- Activity (Mus musculus [2]): Dose-Dependent Effect
- inhibition in vivo at 10 mg/kg (Mus musculus [7]): 22%
- inhibition in vivo at 100 mg/kg (Mus musculus [8]): 77%
- inhibition in vivo at 30 mg/kg (Mus musculus [19]): 49%
- inhibition (Mus musculus [21]): Dose-Dependent Effect

- IC50 [24]: 586 nM
Compound: COc1cc([C@@H](C)N(CCCCCc2ccccc2)C(=O)NC2(C(=O)O)CC(F)(F)C2)cc(OC)c1C

- IC50 [24]: 2150 nM
Compound: COc1cc(CN(CCCCc2ccccc2)C(=O)NC2(C(=O)O)CCCCC2)cc(OC)c1C

- IC50 [24]: 2750 nM
Compound: COc1cc(CN(CCCCc2ccccc2)C(=O)NC2(C(=O)O)CC2)cc(OC)c1C

- IC50 [24]: 2140 nM
Compound: COc1cc(CN(CCCCc2ccccc2)C(=O)NC(C)(C)C(=O)O)cc(OC)c1C

- IC50 [24]: 51.4 nM
Compound: COc1cc([C@@H](C)N(CCCc2ccccc2)C(=O)NC2(C(=O)O)CC(F)(F)C2)cc(OC)c1C
